Laboratory results reported in patent US20100035824A1, “Synergistic Pharmaceutical Composition” (priority 2005, published 2010).

System: collagen-induced thrombocyte aggregation of human blood plasma which is rich of platelets
Assay: Collagen-induced thrombocyte aggregation in platelet-rich human plasma (aggregometry)
Experimental: While the other conditions of the experiment remained the same as in Example 1, the collagen-induced thrombocyte aggregation was measured with different concentrations of genistein and glutamic acid dipeptide.

Compound	maximum thrombocyte aggregation (Example 3: 50 uM genistein, absence of glutamic acid dipeptide) [%]	maximum thrombocyte aggregation (Example 4: 50 uM genistein, 0 uM alanine dipeptide, control about 70%)	maximum thrombocyte aggregation (genistein 100 uM, collagen-induced, control without genistein about 65%)	maximum thrombocyte aggregation (genistein 150 uM, collagen-induced, control about 65%)	maximum thrombocyte aggregation (genistein 200 uM, collagen-induced, control about 65%)	thrombocyte aggregation (glutamic acid dipeptide 100 μmolar, without genistein, control 65%)
O=c1c(-c2ccc(O)cc2)coc2cc(O)cc(O)c12 [genistein, Genistein]	25	about 60%	about 35%	about 23%	about 5%	
glutamic acid dipeptide						about 60%
